Where two headings read alike, the source gives them in different places.
Tests used:
MCF-7 = assay: Tumor cell proliferation inhibition (CellTiter-Meiluncell Luminescent Cell Viability Assay); assay type: cell-based; details: Homo sapiens, 96 hours, Table I-2, ALK inhibitors; for inhibition at 0.01 µM: MCF7, 10 nM, read-out: Inhibition Rate at 10 nM (%); for inhibition at 0.5 µM: MCF7, 500 nM, read-out: Inhibition Rate at 500 nM (%)
In short: (§1)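 Following overnight seeding, tumor cells received serial compound dilutions to final levels that included 10 nM and 500 nM. Viability was assessed by luminescence at the end of the specified exposure time. Cultures were kept at 37°C with 5% CO2.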

MM.1S = assay: as above; assay type: cell-based; details: Homo sapiens, MM1.S, MM.1S, 96 hours, Table I-2, ALK inhibitors; for inhibition at 0.01 µM: 10 nM, read-out: Inhibition Rate at 10 nM (%); for inhibition at 0.5 µM: 500 nM, read-out: Inhibition Rate at 500 nM (%)
In short: as §1

MV-4-11 = assay: as above; assay type: cell-based; details: Homo sapiens, 96 hours; for inhibition at 0.01 µM: MV4-11, 10 nM, read-out: Inhibition Rate at 10 nM (%); for inhibition at 0.5 µM: MV4-11, 500 nM, read-out: Inhibition Rate at 500 nM (%)
In short: as §1

ALK = molecular target: T1, ALK (Homo sapiens, UniProt Q96SW2+Q9HC35+Q9UM73); assay: Western blot, target protein degradation in H2228 Cell; assay type: cell-based; details: substrate protein remaining %, treated at 500 nM and 50 nM, 24 hours
T1 construct: endogenous in cells; host or cells: H2228
T1 sequence (Q9HC35+Q9UM73 fused): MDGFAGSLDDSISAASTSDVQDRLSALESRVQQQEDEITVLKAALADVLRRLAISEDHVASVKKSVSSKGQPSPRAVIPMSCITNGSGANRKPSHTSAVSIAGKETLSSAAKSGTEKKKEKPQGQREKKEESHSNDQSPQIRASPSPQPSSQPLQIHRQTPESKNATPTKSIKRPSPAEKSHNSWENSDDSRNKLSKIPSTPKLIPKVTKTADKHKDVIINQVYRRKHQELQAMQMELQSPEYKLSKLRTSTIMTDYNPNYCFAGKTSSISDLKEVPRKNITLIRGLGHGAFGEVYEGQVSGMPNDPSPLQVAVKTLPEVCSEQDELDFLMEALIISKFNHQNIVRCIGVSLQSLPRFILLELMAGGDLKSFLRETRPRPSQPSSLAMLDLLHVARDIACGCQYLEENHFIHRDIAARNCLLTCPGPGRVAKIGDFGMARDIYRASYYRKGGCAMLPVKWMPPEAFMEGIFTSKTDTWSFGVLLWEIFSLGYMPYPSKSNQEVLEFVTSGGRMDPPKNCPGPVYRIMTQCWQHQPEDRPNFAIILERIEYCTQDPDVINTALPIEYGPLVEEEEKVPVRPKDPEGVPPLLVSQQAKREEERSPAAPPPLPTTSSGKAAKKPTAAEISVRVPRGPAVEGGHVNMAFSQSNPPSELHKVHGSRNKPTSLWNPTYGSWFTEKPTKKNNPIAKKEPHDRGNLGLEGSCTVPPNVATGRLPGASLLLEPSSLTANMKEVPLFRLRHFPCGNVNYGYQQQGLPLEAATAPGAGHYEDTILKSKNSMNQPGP
T1 sequence (Q96SW2 whole entry): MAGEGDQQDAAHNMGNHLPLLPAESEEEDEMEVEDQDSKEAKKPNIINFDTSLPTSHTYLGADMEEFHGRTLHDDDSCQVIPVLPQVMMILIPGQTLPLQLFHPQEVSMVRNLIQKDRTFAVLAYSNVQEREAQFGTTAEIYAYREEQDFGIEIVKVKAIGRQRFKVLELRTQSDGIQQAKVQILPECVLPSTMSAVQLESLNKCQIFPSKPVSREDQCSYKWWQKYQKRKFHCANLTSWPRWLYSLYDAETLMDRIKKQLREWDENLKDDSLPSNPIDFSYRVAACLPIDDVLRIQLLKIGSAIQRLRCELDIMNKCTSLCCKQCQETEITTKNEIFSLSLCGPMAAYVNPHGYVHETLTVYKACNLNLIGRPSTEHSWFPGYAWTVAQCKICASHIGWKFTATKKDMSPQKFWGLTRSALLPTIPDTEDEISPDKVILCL
T1 sequence (Q16531 whole entry partner): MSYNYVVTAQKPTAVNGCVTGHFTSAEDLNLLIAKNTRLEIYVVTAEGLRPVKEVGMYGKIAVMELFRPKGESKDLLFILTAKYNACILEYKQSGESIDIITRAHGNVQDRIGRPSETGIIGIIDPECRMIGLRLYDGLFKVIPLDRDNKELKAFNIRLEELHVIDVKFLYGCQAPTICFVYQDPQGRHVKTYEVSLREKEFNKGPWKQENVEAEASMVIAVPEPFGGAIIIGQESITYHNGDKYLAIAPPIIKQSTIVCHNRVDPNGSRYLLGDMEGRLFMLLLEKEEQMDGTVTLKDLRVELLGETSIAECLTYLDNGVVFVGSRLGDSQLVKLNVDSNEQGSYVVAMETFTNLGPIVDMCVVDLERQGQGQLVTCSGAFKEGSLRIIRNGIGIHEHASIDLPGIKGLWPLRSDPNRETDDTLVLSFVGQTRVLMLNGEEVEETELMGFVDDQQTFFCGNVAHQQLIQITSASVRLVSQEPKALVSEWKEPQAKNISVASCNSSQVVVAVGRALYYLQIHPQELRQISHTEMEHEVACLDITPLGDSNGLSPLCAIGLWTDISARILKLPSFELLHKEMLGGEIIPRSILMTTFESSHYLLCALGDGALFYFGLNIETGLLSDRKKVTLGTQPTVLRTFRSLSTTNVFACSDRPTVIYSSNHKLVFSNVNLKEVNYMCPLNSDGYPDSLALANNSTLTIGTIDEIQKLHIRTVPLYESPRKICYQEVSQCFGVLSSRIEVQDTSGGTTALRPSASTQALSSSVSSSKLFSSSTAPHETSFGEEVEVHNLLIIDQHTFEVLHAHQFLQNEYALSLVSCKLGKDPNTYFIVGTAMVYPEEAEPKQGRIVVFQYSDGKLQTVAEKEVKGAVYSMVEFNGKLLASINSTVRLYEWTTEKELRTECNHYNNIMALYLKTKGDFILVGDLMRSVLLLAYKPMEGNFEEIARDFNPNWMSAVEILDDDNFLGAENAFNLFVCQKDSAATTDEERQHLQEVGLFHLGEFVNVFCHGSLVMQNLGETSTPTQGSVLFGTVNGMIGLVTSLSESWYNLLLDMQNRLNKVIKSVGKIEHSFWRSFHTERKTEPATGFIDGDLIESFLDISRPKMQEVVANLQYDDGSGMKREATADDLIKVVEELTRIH
Procedure: (§2) Conventional Western blot assay was performed to evaluate the effects of the compounds of the present disclosure on the expression of target proteins in cells.
(§3) (1) Cell Seeding and Protein Harvesting: The selected cells were processed according to the cell seeding procedure and protein harvesting procedure in Table II-2. Table II-2 Cell Seeding and Protein Harvesting Procedures
(§4) (2) To the collected supernatant, 5X SDS sample loading buffer was added, followed by denaturation at 95°C for 5 minutes. The denatured samples were then separated by SDS-PAGE electrophoresis on a polyacrylamide gel. Proteins were transferred to a nitrocellulose membrane (0.45 µm NC membrane), blocked with blocking buffer at room temperature for 1 hour, and subjected to antibody incubation and development procedures according to the antibody manufacturer's instructions (Cell Signaling Technology).
(§5) Half-Maximal Degradation Concentration value (the drug concentration required for degrading proteins by 50%, abbreviated as DC50) reads method: comparing the grayscale values of Western blot bands from drug-treated samples with those from blank DMSO-treated controls, and identifying the drug concentration range at which the grayscale value is half that of the DMSO-treated control bands.
(§6) DC50 values can be calculated using ImageJ software to measure grayscale values of Western blot bands from drug-treated samples. The concentration-response curve is fitted to estimate the drug concentration corresponding to half the grayscale value.
(§7) Target protein remaining (%) refers to the percentage of target protein remaining in cells after treatment with protein degrader compounds.
(§8) Calculation method for target protein remaining (%): Use ImageJ software to measure grayscale values of Western blot bands from drug (protein degrader)-treated samples. The grayscale value of drug-treated bands is divided by that of internal control protein bands, and the resulting quotient is normalized to obtain the relative percentage of remaining target protein after protein degrader treatment. Target protein degradation rate(%) = 1−target protein remaining(%). [formula]

[1] = molecular target: T2, human Cereblon WT GST-tagged protein (Homo sapiens, UniProt Q96SW2); assay: CRBN-binding affinity, HTRF (CEREBLON BINDING kit); details: for inhibition at 0.5 µM: read-out: Inhibition Rate at 0.5 µM (%); for inhibition at 2 µM: read-out: Inhibition Rate at 2 µM (%)
T2 construct: purchased CISBIO 64BDCRBNPEH
T2 sequence (Q96SW2 whole entry): as the sequence (Q96SW2 whole entry) above
In short: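 Competitive HTRF binding: compounds diluted in diluent #9 incubated with GST-tagged wild-type human Cereblon, thalidomide-Red tracer and anti-GST Eu antibody. Final compound concentrations 2 µM and 0.5 µM.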

H1975 = assay: Tumor cell proliferation inhibition (CellTiter-Meiluncell Luminescent Cell Viability Assay); assay type: cell-based; details: Homo sapiens, 96 hours, Table I-3, EGFR inhibitors; for inhibition at 0.01 µM: NCI-H1975, 10 nM, read-out: Inhibition Rate at 10 nM (%); for inhibition at 0.5 µM: NCI-H1975, 500 nM, read-out: Inhibition Rate at 500 nM (%)
In short: as §1

RPMI-8226 = assay: as above; assay type: cell-based; details: Homo sapiens, 96 hours, Table I-3, EGFR inhibitors
In short: as §1

SW620 = assay: as above; assay type: cell-based; details: Homo sapiens, 96 hours, Table I-3, EGFR inhibitors
In short: as §1

FAK = molecular target: T3, FAK (Homo sapiens, UniProt Q05397); assay: Western blot, target protein degradation in A549 Cell; assay type: cell-based; details: substrate protein remaining %, treated at 500 nM and 50 nM, 24 hours
T3 construct: endogenous in cells; host or cells: A549
T3 sequence (Q05397 whole entry): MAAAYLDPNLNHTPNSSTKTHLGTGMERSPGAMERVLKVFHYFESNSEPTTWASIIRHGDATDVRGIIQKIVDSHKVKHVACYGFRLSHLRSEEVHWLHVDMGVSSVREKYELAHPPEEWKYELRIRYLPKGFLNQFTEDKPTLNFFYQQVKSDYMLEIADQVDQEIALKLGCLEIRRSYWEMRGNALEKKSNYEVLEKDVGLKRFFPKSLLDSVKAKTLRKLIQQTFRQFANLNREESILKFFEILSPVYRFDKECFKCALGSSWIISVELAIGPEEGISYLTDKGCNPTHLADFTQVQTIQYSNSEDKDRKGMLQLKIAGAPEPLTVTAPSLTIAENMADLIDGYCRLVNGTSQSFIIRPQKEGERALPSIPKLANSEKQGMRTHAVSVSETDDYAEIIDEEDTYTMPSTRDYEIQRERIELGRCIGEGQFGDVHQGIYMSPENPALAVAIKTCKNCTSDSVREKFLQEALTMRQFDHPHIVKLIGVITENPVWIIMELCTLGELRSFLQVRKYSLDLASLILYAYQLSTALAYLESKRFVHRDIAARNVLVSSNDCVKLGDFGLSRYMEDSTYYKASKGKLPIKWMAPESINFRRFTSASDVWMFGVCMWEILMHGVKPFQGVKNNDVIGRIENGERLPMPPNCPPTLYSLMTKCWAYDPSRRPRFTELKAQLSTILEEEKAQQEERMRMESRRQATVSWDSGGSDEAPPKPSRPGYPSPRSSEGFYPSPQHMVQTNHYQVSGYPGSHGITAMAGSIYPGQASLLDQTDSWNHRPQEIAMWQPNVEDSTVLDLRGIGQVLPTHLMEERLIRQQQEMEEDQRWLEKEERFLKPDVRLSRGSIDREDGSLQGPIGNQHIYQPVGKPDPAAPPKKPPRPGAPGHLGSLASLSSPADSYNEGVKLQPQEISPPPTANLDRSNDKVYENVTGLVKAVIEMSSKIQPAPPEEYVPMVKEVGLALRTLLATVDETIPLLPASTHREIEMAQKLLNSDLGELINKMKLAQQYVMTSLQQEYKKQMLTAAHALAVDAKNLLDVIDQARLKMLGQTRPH
Procedure: as §2, §3, §4, §5, §6, §7, §8

inhibition at 0.5 µM [1] [%]	inhibition at 2 µM [1] [%]	Structure (SMILES)	inhibition at 0.01 µM (MCF-7) [%]	inhibition at 0.5 µM (MCF-7) [%]	inhibition at 0.01 µM (MM.1S) [%]	inhibition at 0.5 µM (MM.1S) [%]	inhibition at 0.01 µM (MV-4-11; Table I-2, ALK inhibitors) [%]	inhibition at 0.5 µM (MV-4-11; Table I-2, ALK inhibitors) [%]	Degradation of substrate protein ALK (ALK)	inhibition at 0.01 µM (H1975) [%]	inhibition at 0.5 µM (H1975) [%]	further results
80 to 100	80 to 100	COc1cc(N2CCN(Cc3ccc4c(c3)CN(C3CCC(=O)NC3=O)C4=S)CC2)ccc1Nc1ncc(Cl)c(Nc2ccccc2P(C)(C)=O)n1 (stereo not shown) [GT-08675, 3-(5-((4-(4-((5-chloro-4-((2-(dimethylphosphoryl)phenyl)amino)pyrimidin-2-yl)amino)-3-methoxyphenyl)piperazin-1-yl)methyl)-1-thioxoisoindolin-2-yl)piperidine-2,6-dione]	20 to 30	40 to 50	10 to 20	30 to 40	10 to 20	70 to 80	A (0% ≤ substrate protein remaining % ≤ 80%)			
		C#Cc1cccc(Nc2ncnc3cc(OCCOC)c(OCCOC)cc23)c1 [erlotinib, Erlotinib, reference compound]								0 to 5	0 to 5	inhibition at 0.01 µM (MV-4-11; Table I-3, EGFR inhibitors): 0 to 5%; inhibition at 0.5 µM (MV-4-11; Table I-3, EGFR inhibitors): 10 to 20%; inhibition at 0.01 µM (RPMI-8226; 10 nM, read-out: Inhibition Rate at 10 nM (%)): 20 to 30%; inhibition at 0.5 µM (RPMI-8226; 500 nM, read-out: Inhibition Rate at 500 nM (%)): 20 to 30%; inhibition at 0.01 µM (SW620; SW-620, 10 nM, read-out: Inhibition Rate at 10 nM (%)): 10 to 20%; inhibition at 0.5 µM (SW620; SW-620, 500 nM, read-out: Inhibition Rate at 500 nM (%)): 10 to 20%
40 to 53	60 to 80	Cc1cc(Nc2ncc(Cl)c(Nc3ccccc3S(=O)(=O)C(C)C)n2)c(OC(C)C)cc1C1CCN(Cc2ccc3c(c2)C(=S)N(C2CCC(=O)NC2=O)C3)CC1 (stereo not shown) [GT-08678, 3-(6-((4-(4-((5-chloro-4-((2-(isopropylsulfonyl)pheny 1)amino)pyrimidin-2-yl)amino)-5-isopropoxy-2-methylphenyl)piperidin-1-yl)methyl)-1-thioxoisoindolin-2-yl)piperidine-2,6-dione]	-20 to -10	40 to 50	0 to 10	50 to 60			A (0% ≤ substrate protein remaining % ≤ 80%)			
30 to 40	53 to 60	O=C1CCC(N2Cc3c(CN4C[C@H]5C[C@@H]4CN5c4ccc(-c5cc(F)c6c(c5)C(=O)N(C(C(=O)Nc5nccs5)c5ncn7c5CCC7)C6)cc4)cccc3C2=S)C(=O)N1 (stereo partly drawn) [GT-08760, 2-(6,7-dihydro-5H-pyrrolo[1,2-c]imidazol-1-yl)-2-(6-(4-((1R,4R)-5-((2-(2,6-dioxopiperidin-3-yl)-1-thioxoisoindolin-4-yl)methyl)-2,5-diazabicyclo[2.2.1]heptan-2-yl)phenyl)-4-fluoro-1-oxoisoindolin-2-yl)-N-(thiazol-2-yl)acetamide]								20 to 30	50 to 60	
53 to 60	80 to 100	CS(=O)(=O)c1cccc(CNc2nc(Nc3ccc(N4CCN(Cc5cccc6c5CN(C5CCC(=O)NC5=O)C6=S)CC4)cc3)ncc2C(F)(F)F)c1 (stereo not shown) [GT-08784, 3-(4-((4-(4-((4-((3-(methylsulfonyl)benzyl)amino)-5-(trifluoromethyl)pyrimidin-2-yl)amino)phenyl)piperazin-1-yl)methyl)-1-thioxoisoindolin-2-yl)piperidine-2,6-dione]										Degradation of substrate protein FAK (FAK): A (0% ≤ substrate protein remaining % ≤ 80%)
60 to 80	80 to 100	COc1cc(N2CCN(Cc3ccc4c(c3)C(=S)N(C3CCC(=O)NC3=O)C4)CC2)ccc1Nc1ncc(Cl)c(Nc2ccccc2P(C)(C)=O)n1 (stereo not shown) [GT-08679, 3-(6-((4-(4-((5-chloro-4-((2-(dimethylphosphoryl)phenyl)amino)pyrimidin-2-yl)amino)-3-methoxyphenyl)piperazin-1-yl)methyl)-1-thioxoisoindolin-2-yl)piperidine-2,6-dione]	20 to 30	40 to 50	10 to 20	20 to 30	50 to 60	80 to 100	A (0% ≤ substrate protein remaining % ≤ 80%)			
		CNC(=O)c1ccccc1Nc1cc(Nc2cc(C)c(C3CCN(Cc4ccc5c(c4)CN(C4CCC(=O)NC4=O)C5=S)CC3)cc2OC(C)C)ncc1C(F)(F)F (stereo not shown) [GT-08782, 2-((2-((4-(1-((2-(2,6-dioxopiperidin-3-yl)-1-thioxoisoindolin-5-yl)methyl)piperidin-4-yl)-2-isopropoxy-5-methylphenyl)amino)-5-(trifluoromethyl)pyridin-4-yl)amino)-N-methylbenzamide]										Degradation of substrate protein FAK (FAK): A (0% ≤ substrate protein remaining % ≤ 80%)
40 to 53	60 to 80	Cc1cc(Nc2ncc(Cl)c(Nc3ccccc3S(=O)(=O)C(C)C)n2)c(OC(C)C)cc1C1CCN(Cc2cccc3c2CN(C2CCC(=O)NC2=O)C3=S)CC1 (stereo not shown) [GT-08676, 3-(4-((4-(4-((5-chloro-4-((2-(isopropylsulfonyl)pheny 1)amino)pyrimidin-2-yl)amino)-5-isopropoxy-2-methylphenyl)piperidin-1-yl)methyl)-1-thioxoisoindolin-2-yl)piperidine-2,6-dione]	40 to 50	60 to 70	10 to 20	30 to 40	40 to 50	60 to 70	A (0% ≤ substrate protein remaining % ≤ 80%)			
60 to 80	80 to 100	COc1cc(N2CCC(N(C)Cc3ccc4c(c3)C(=S)N(C3CCC(=O)NC3=O)C4)CC2)ccc1Nc1ncc(Cl)c(Nc2ccccc2P(C)(C)=O)n1 (stereo not shown) [GT-08680, 3-(6-(((1-(4-((5-chloro-4-((2-(dimethylphosphoryl)phenyl)amino)pyrimidin-2-yl)amino)-3-methoxyphenyl)piperidin-4-yl)(methyl)amino)methyl)-1-thioxoisoindolin-2-yl)piperidine-2,6-dione]			0 to 10	50 to 60	10 to 20	60 to 70	A (0% ≤ substrate protein remaining % ≤ 80%)			

Structure (SMILES)	inhibition at 0.5 µM [1] [%]	inhibition at 2 µM [1] [%]	inhibition at 0.01 µM (MCF-7) [%]	inhibition at 0.5 µM (MCF-7) [%]	inhibition at 0.01 µM (MM.1S) [%]	inhibition at 0.5 µM (MM.1S) [%]	inhibition at 0.01 µM (MV-4-11; Table I-2, ALK inhibitors) [%]	inhibition at 0.5 µM (MV-4-11; Table I-2, ALK inhibitors) [%]	Degradation of substrate protein ALK (ALK)	inhibition at 0.01 µM (H1975) [%]	inhibition at 0.5 µM (H1975) [%]	further results
O=C1CCC(N2Cc3cc(CN4C[C@H]5C[C@@H]4CN5c4ccc(-c5cc(F)c6c(c5)C(=O)N(C(C(=O)Nc5nccs5)c5ncn7c5CCC7)C6)cc4)ccc3C2=S)C(=O)N1 (stereo partly drawn) [GT-08757, 2-(6,7-dihydro-5H-pyrrolo[1,2-c]imidazol-1-yl)-2-(6-(4-((1R,4R)-5-((2-(2,6-dioxopiperidin-3-yl)-1-thioxoisoindolin-5-yl)methyl)-2,5-diazabicyclo[2.2.1]heptan-2-yl)phenyl)-4-fluoro-1-oxoisoindolin-2-yl)-N-(thiazol-2-vl)acetamide]	53 to 60	60 to 80								20 to 30	50 to 60	
